Reference: patent US11753445B2, “Therapeutic peptides” (COHBAR, INC., priority 2016, dated 2023)

Tests used:
[1] = tested on: Diet Induced Obese (DIO) mice; assay: Body weight, blood glucose and fat mass in Diet Induced Obese mice, 10 days (Example 6); assay type: in vivo, Male C57BL/6 mice; details: male DIO mice; 10 days twice daily intraperitoneal 15 mg/kg; N = 8; mean
In short: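 Male DIO mice (n=8/group), randomized by blood glucose and body weight, dosed 15 mg/kg/dose once or twice daily s.c. or i.p. for 10 days vs vehicle. Body weight, blood glucose and food intake monitored; fat vs lean mass by quantitative whole-body NMR before and after dosing.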

3T3-L1 Adipocytes [2] = assay: Free fatty acid levels in cultured mouse 3T3-L1 adipocytes, forskolin stimulated (Example 3); assay type: cell-based; details: forskolin 1 μM; for Free Fatty Acid Levels in 3T3-L1 Adipocytes Expressed as a Percent of Forskolin Control: Percent of Control Value: test peptides 25 μM
In short: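 Mouse 3T3-L1 cells differentiated 12–17 days, then exposed to test peptides (25 μM) for 18–20 h, fresh peptide 1 h, then 3 h with 1 μM forskolin. Free fatty acids in medium read colorimetrically at 540 nm. Values background-corrected and expressed relative to forskolin-only cells.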

[3] = Stability in monkey plasma (Example 16); assay type: in vitro ADME; details: Monkey plasma 37° C., peptide 10 uM; for remaining at 1 h, 10 uM: 60 min, read-out: % Remaining at Each Time Point: 60 min; for remaining at 2 h, 10 uM: 120 min, read-out: % Remaining at Each Time Point: 120 min; for remaining at 3 h, 10 uM: 180 min, read-out: % Remaining at Each Time Point: 180 min
[4] = Stability in human plasma (Example 16); assay type: in vitro ADME; details: Human plasma 37° C., peptide 10 uM; for remaining at 1 h, 10 uM / remaining at 2 h, 10 uM / remaining at 3 h, 10 uM: pooled human plasma; for remaining at 1 h, 10 uM: 60 min, read-out: % Remaining at Each Time Point: 60 min; for remaining at 2 h, 10 uM: 120 min, read-out: % Remaining at Each Time Point: 120 min; for remaining at 3 h, 10 uM: 180 min, read-out: % Remaining at Each Time Point: 180 min
Protocol: (§1) Peptides (10 uM) were incubated in pooled mouse or human plasma at 37° C. and samples were removed and immediately analyzed for the concentration of intact peptide by LC/MS/MS over the course of 3 hours. The percent of peptide remaining in plasma at each time point was calculated relative to the initial peak area (Table 14).

[5] = Stability in mouse plasma, peptides 10 uM (Example 15); assay type: in vitro ADME; details: mouse plasma 37° C., peptide 10 uM; for remaining at 0.25 h, 10 uM / remaining at 0.5 h, 10 uM / remaining at 1 h, 10 uM / remaining at 2 h, 10 uM / remaining at 3 h, 10 uM: pooled mouse plasma; for remaining at 0.25 h, 10 uM: 15 min, read-out: % Remaining at Each Time Point: 15 min; for remaining at 0.5 h, 10 uM: 30 min, read-out: % Remaining at Each Time Point: 30 min; for remaining at 1 h, 10 uM: 60 min, read-out: % Remaining at Each Time Point: 60 min; for remaining at 2 h, 10 uM: 120 min, read-out: % Remaining at Each Time Point: 120 min; for remaining at 3 h, 10 uM: 180 min, read-out: % Remaining at Each Time Point: 180 min
Protocol: as §1, with “mouse” for “mouse or human”, “13).” for “14).”

3T3-L1 Adipocytes [6] = assay: Free fatty acid levels in cultured mouse 3T3-L1 adipocytes, isoproterenol stimulated (Example 17); assay type: cell-based; details: insulin 100 nM; 3T3-L1 adipocytes; isoproterenol 1 nM
Protocol: Mouse 3T3-L1 cells were seeded at a density between 1,000-20,000 cells per well on 96-well, 48-well, or 24-well plates in Pre-adipocyte Medium (Zen-Bio, Durham, N.C.) and grown to confluence at 37° C. in a humidified atmosphere of 5% CO2/95% air. Two days after confluence, cells were placed in Adipocyte Differentiation Medium (Zen-Bio, Durham, N.C.) and cultured for three additional days at 37° C. in a humidified atmosphere of 5% CO2/95% air. The culture media was then replaced with Adipocyte Maintenance Medium (Zen-Bio) and the cells were maintained for an additional 9-14 days at 37° C. in a humidified atmosphere of 5% CO2/95% air with partial medium replacement every other day. Following 12-17 days of differentiation, test peptides were added at a final concentration of 25-50 μM and incubated for 18-20 hours in Adipocyte Maintenance Medium at 37° C. in a humidified atmosphere of 5% CO2/95%. After the media incubation, media was removed and exchanged with Assay Buffer (Zen-Bio) containing isoproterenol (1 nM) (added to all samples except untreated controls) and the test peptides. Cells were incubated for a further 3 hours at 37° C. in a humidified atmosphere of 5% CO2/95%. Free fatty acid concentrations in the media were determined using a Free Fatty Acid Assay Kit (Zen-Bio) according to the manufacturer's instructions using a plate reader (540 nm).
Absorbance values were corrected for untreated background and expressed relative to isoproterenol treated cells. Treatment with isoproterenol (1 nM) alone was used as the free fatty acid level stimulatory control. The relative standard deviation of the isoproterenol control was <10%. […] Free fatty acid levels for insulin (100 nM) treatment were <5% of the isoproterenol control value.

Substance | % Remaining at Each Time Point: 0 min [3] [%] | remaining at 1 h, 10 uM [3] [%] | remaining at 2 h, 10 uM [3] [%] | remaining at 3 h, 10 uM [3] [%] | % Remaining at Each Time Point: 0 min [4] [%] | remaining at 1 h, 10 uM [4] [%] | remaining at 2 h, 10 uM [4] [%] | remaining at 3 h, 10 uM [4] [%] | % Remaining at Each Time Point: 0 min [5] [%] | remaining at 0.25 h, 10 uM [5] [%] | remaining at 0.5 h, 10 uM [5] [%] | remaining at 1 h, 10 uM [5] [%] | remaining at 2 h, 10 uM [5] [%] | remaining at 3 h, 10 uM [5] [%] | Difference from Vehicle Control: Decrease from Baseline in Blood Glucose [1] [mg/dL] | Difference from Vehicle Control: Decrease from Baseline in Body Weight (%) [1] [%] | Difference from Vehicle Control: Decrease from Baseline in Fat Mass [1] [g] | Free Fatty Acid Levels in 3T3-L1 Adipocytes Expressed as a Percent of Forskolin Control: Percent of Control Value (3T3-L1 Adipocytes [2]) [%] | Free fatty acid levels, % of the isoproterenol control value (3T3-L1 Adipocytes [6]) [%] | Free fatty acid levels, % of the forskolin control value (3T3-L1 Adipocytes [2]; insulin 100 nM, 3T3-L1 adipocytes) [%]
H-MRWQEMGYIFYPRKLA-OH [compound 21] | – | – | – | – | – | – | – | – | – | – | – | – | – | – | -4.21 | −3.00 | -2.03 | 56.0 | – | –
H-MRWQEMGYIFYPRKLR-OH [compound 2] | 100 | 72.8 | 39.8 | 23.4 | 100 | 56.3 | 44.7 | 38.4 | 100 | 78.3 | 38.9 | 9.6 | 0.8 | 0.4 | -4.88 | −0.58 | -0.24 | 59.2 | – | –
H-MRWQEMGYIFYPRNLR-OH [compound 213] | – | – | – | – | – | – | – | – | – | – | – | – | – | – | -20.1 | −4.21 | -1.16 | 36.0 | – | –
H-MRWQEMQYIFYPRALR-OH [compound 219] | – | – | – | – | – | – | – | – | – | – | – | – | – | – | -17.3 | −4.09 | -1.37 | 41.5 | – | –
Insulin [reference compound] | – | – | – | – | – | – | – | – | – | – | – | – | – | – | – | – | – | – | < 5 | < 9

Second part, led by results:

% Remaining at Each Time Point: 0 min [3] [%] | remaining at 1 h, 10 uM [3] [%] | remaining at 2 h, 10 uM [3] [%] | remaining at 3 h, 10 uM [3] [%] | % Remaining at Each Time Point: 0 min [4] [%] | remaining at 1 h, 10 uM [4] [%] | remaining at 2 h, 10 uM [4] [%] | remaining at 3 h, 10 uM [4] [%] | % Remaining at Each Time Point: 0 min [5] [%] | remaining at 0.25 h, 10 uM [5] [%] | remaining at 0.5 h, 10 uM [5] [%] | remaining at 1 h, 10 uM [5] [%] | remaining at 2 h, 10 uM [5] [%] | remaining at 3 h, 10 uM [5] [%] | Substance | Difference from Vehicle Control: Decrease from Baseline in Blood Glucose [1] [mg/dL] | Difference from Vehicle Control: Decrease from Baseline in Body Weight (%) [1] [%] | Difference from Vehicle Control: Decrease from Baseline in Fat Mass [1] [g] | Free Fatty Acid Levels in 3T3-L1 Adipocytes Expressed as a Percent of Forskolin Control: Percent of Control Value (3T3-L1 Adipocytes [2]) [%] | Free fatty acid levels, % of the isoproterenol control value (3T3-L1 Adipocytes [6]) [%] | Free fatty acid levels, % of the forskolin control value (3T3-L1 Adipocytes [2]; insulin 100 nM, 3T3-L1 adipocytes) [%]
100 | 106 | 89 | 68 | 100 | 105 | 86.6 | 85.4 | 100 | 77 | 51.8 | 21 | 3.94 | 1.09 | H-MRWQEMNYIFYPR-OH [compound 208] | -11.5 | −5.05 | -1.87 | 62.4 | – | –
100 | 105 | 87.9 | 77.9 | 100 | 106 | 90.8 | 95.8 | 100 | 85.7 | 79.5 | 61.9 | 35.4 | 23 | H-RWQEMNYIFYPR-OH [compound 210] | 8.25 | −3.70 | -1.45 | 29.2 | – | –
– | – | – | – | – | – | – | – | 100 | 85.2 | 72.8 | 52.3 | 30.3 | 17.9 | H-RWQEMQYIFYPR-OH [compound 211] | -2.25 | −1.04 | -0.43 | 33.7 | – | –
